Residue numbers refer to the chain shown, from its start.
Experiments:
Assay type in all cases: biochemical
mouse JNK1 = target: T1, mouse JNK1 (Mus musculus, UniProt Q91Y86); details: 10 μM SP600125; 0.25 mM ATP, 10 mM MgCl2, pH 7.4, 30 °C, 30 min
T1 construct: gene Mapk8; commercial recombinant protein (Cell Signaling Technology)

[1] = target: T2, nSMase1 (wild-type), zebrafish (Danio rerio, UniProt F1QUD7, S270A); test: C6-NBD-ceramide release assay; details: 37 °C; basal enzyme, not JNK-treated
T2 construct: gene smpd2a; zebrafish cDNA
T2 sequence (F1QUD7 1-421 S270A): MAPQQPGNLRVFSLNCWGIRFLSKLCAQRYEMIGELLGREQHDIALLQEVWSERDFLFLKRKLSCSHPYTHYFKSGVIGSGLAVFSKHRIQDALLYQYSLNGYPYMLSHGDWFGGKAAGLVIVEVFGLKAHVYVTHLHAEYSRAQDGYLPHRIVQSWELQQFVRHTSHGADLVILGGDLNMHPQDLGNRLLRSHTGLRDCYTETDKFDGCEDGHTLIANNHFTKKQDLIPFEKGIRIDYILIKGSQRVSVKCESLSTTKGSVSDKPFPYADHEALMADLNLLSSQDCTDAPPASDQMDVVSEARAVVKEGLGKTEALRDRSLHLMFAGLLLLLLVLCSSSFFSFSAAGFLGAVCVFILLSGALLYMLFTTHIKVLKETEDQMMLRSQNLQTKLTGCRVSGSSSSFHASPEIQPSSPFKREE

[2] = target: T3, nSMase1 (wild-type), zebrafish (Danio rerio, UniProt F1QUD7); test: C6-NBD-ceramide release assay; details: 37 °C; basal enzyme, not JNK-treated
T3 construct: gene smpd2a; zebrafish cDNA
T3 sequence (F1QUD7 1-421): T2 sequence (F1QUD7 1-421 S270A) with A270S

T1 sequence (Q91Y86 whole entry): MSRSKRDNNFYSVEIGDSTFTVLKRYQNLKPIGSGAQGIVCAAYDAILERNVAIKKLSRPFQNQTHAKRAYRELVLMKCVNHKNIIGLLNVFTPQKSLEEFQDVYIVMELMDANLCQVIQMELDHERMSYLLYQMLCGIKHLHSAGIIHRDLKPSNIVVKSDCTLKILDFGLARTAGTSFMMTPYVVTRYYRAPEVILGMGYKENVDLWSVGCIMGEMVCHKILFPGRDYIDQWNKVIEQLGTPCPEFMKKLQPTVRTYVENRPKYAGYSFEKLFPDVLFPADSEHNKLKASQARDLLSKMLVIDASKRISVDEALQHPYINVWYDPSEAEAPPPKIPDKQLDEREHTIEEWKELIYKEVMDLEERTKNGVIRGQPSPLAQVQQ

SMILES	phosphorylation inhibition at 10 μM (mouse JNK1)	C6-NBD-ceramide release assay [1]	C6-NBD-ceramide release assay [2]
O=C1c2ccccc2-c2n[nH]c3cccc1c23 [SP600125, Anthra[1,9-cd]pyrazol-6(2H)-one]	wild-type pulsed with SP600125 were not phosphorylated		
CCCCCCCCCCCCC/C=C/[C@@H](O)[C@H](COP(=O)([O-])OCC[N+](C)(C)C)NC(=O)CCCCCNc1ccc([N+](=O)[O-])c2nonc12 [C6-NBD-sphingomyelin]		nSMase activities of the recombinant proteins were determined using C6-NBD-sphingomyelin	nSMase activities of the recombinant proteins were determined using C6-NBD-sphingomyelin

Reference: publication PMC4291487, “Stress-induced ceramide generation and apoptosis via the phosphorylation and activation of nSMase1 by JNK signaling” (Cell Death and Differentiation, 2014)
